From patent US10941187B2 (The United States of America, as represented by the …, priority 2001, dated 2021)
“Also recorded” adds a separate entry of the source. Ends that are not written are not given here.

Key:
[1] = tested on: RIN 1048-36 cells; test: Insulin secretion in vitro in RIN 1048-36 cells; format: cell-based, rat; details: peptide 1×10−8 M, 5 mM glucose, 1 h; compared with GLP-1 and exendin-4
Procedure: Thereafter, they were preincubated for 2 periods of 30 min each with glucose-free buffer (containing mM: 140 NaCl, 5 KCl, 1 NaPO4, 1 MgSO4, 2 CaCl, 20 HEPES buffer (pH 7.4), and 0.1% bovine serum albumin) in a 37° C. humidified incubator. […] After 1 h the medium was removed and stored at −80° C. prior to quantification of insulin levels by EIA (Crystal Chem, Chicago Ill.), and the cells were lysed with HCl (300 μl, 0.1 M, 20 min, RT) for measurement of total protein using the Bradford method (Bio-Rad, Richmond, Calif.) with bovine γ-globulin as a standard.

[2] = tested on: PC12 cells; test: Inhibition of GLP-1, exendin-4 and NGF induced neurite outgrowth in PC12 cells; format: cell-based, rat; details: 48 h; PD98059 50 μM, LY294002 40 μM, H89 20 μM, or exendin (9-39) with exendin-4
Procedure: NGF at 50 ng/ml and forskolin (PKA activator) (20 μM) were used as positive controls in these treatments.

[3] = tested on: Zucker fatty (fa/fa) and Wistar rats; test: Blood glucose and insulin after subcutaneous injection; format: in vivo, rat; details: 24 nmol/kg s.c.
Procedure: Six-month old male Zucker fa/fa rats (Harlan, Indianapolis, Ind.) and six-month old Wistar rats were used in this study. They were allowed ad libitum access to chow and water and were on a 12 h light, 12 h dark cycle (lights on 0700 h). The bedding for the Zucker rats was a paper based product, “Carefresh” (Absorption Co., Belingham, Wash.). The Zucker rats were fasted on wire, in the absence of bedding, overnight before the experiment. Wistar rats were fasted on their normal bedding. General anaesthesia was induced by an intraperitoneal injection of pentobarbital (50 mg/kg).

[4] = tested on: fasted, diabetic Zucker rats; test: Duration of in vivo insulinotropic action after intraperitoneal peptide; set-up: species or system rat; details: 0.4 nmol/kg i.p.
Procedure: The time-dependent duration of insulinotropic action was evaluated by quantifying plasma insulin and glucose levels in Zucker rats following intraperitoneal (i.p.) peptide administration. Specifically, after overnight fasting, diabetic male rats, approximately 400 g weight, were anesthetized with 50 mg/kg pentobarbital and a catheter was tied into their right femoral artery for blood collection. […] Blood, taken prior to peptide administration, at 30 and 60 min, and at 2, 4, 6 and 24 h, was drawn into heparinized tubes containing EDTA and aprotinin for insulin determination, and a separate sample was taken to measure glucose. Plasma was separated, removed and immediately frozen to −70° C. Thereafter insulin levels were quantified by using a rat insulin ELISA kit (Crystal Chem Inc., Chicago, Ill.) and plasma glucose was quantified by the glucose oxidase method.

[5] = tested on: β-amyloid precursor protein (βAPP); test: Western immunoblot of βAPP (cell lysates) and sAPP (conditioned media) in PC12 cells; details: day 3, relative to untreated
[6] = tested on: Aβ1-40; test: Aβ1-40 in whole brain homogenates after i.c.v. infusion in control mice; format: in vivo, mouse; details: 2 μg NGF i.c.v., 48 h, p<0.01
Procedure: Lean db+/db+ control male mice (n=24) were anaesthetized with 50 mg/kg pentobarbitone and placed in a stereotaxic surgical frame with mouse adaptor (David Kopf Instruments, Tujunga, Calif.) using temporal bone cup holders. […] After 48 h all animals were sacrificed by cervical dislocation, the brains removed and rapidly frozen in liquid nitrogen. Brains were pulverized and stored at −80° C. prior to assaying for Aβ levels.
Equivalent volumes of conditioned media and whole brain homogenate were assayed for Aβ1-40 using a sandwich ELISA (Suzuki et. al., 1994). The monoclonal antibody BAN50 (raised against Aβ1-16) was used as the capture antibody for all species of Aβ (Aβ1-40 and Aβ1-42), and the monoclonal antibody BA27 was used to specifically detect Aβ1-40 levels. Levels of Aβ1-40 were expressed in pM concentrations for conditioned media samples and finol/g for the mouse brain homogenates, as deduced from the appropriate standard curve run in parallel with the assay.

[7] = tested on: PC12 cells; test: Neurite outgrowth in PC12 cells; format: cell-based, rat; details: day 3
Procedure: Three dishes for each treatment condition were prepared. Treatments began 24 hours after seeding, once cells were well attached.
PC12 cells were grown on 60 mm dishes as above and cultured for four days. During this time neurite outgrowth was quantified daily. Five random fields of cells were evaluated per dish and the proportion of neurite-bearing cells was determined. Approximately 100 cells per field were scored for neurites equal to or greater in length than that of the cell body. A cell was only scored once, although it may have had more than one process per cell.

[8] = tested on: PC12 cells; test: Bromodeoxyuridine incorporation in PC12 cells; details: day 1; GLP-1 33 μg/ml, NGF 50 ng/ml
Procedure: Immunocytochemistry with an anti-BrdU antibody after labeling was used to identify cells that were actively replicating DNA at the time of labeling. […] 10 μM BrdU was added to the culture medium for 6 hours prior to fixing in 4% paraformaldehyde, to label cellular DNA. The remainder of the method was followed according to the proliferation kit (Roche, Indianapolis, Ind.). […] BrdU incorporation was quantitated on days 1, 2 and 3 of treatment. Three dishes for each treatment condition were counted and expressed as the percentage of labeled cells relative to the total number of cells.

[9] = tested on: synaptophysin; test: Synaptophysin expression in PC12 cells (Western blot); format: cell-based, rat; details: PC12 cell lysates
Procedure: The synaptophysin monoclonal antibody (Oncogene Research Products, San Diego Calif.), which stains neurosecretory vesicles of PC12 cells, was used. The membranes were blocked with 20 mM Tris, 500 mM NaCl pH 7.4, 1% (w/v) casein (BioRad, San Diego Calif.) at 37° C. for 1 hour. Primary antibody was diluted in block and incubated with the proteins overnight at 4° C. The membrane was vigorously washed with 20 mM Tris pH 7.4, 150 mM NaCl and 0.05% Tween-20 (TBST), three times for 15 minutes at room temperature. The peroxidase-linked secondary antibody in block was incubated with the membrane for 2 hours at room temperature. Peroxidase-linked anti-mouse IgM (Chemicon, Tenecula, Calif.) was used as the secondary antibody against synaptophysin. Excess antibody was washed off with three vigorous washes in TBST prior to incubation in ECL Plus (Amersham, Philadelphia, Pa.) for 5 minutes. The membrane was subsequently exposed to photographic film.

[10] = tested on: Aβ1-40; test: Aβ1-40 sandwich ELISA of PC12 conditioned media; format: cell-based, rat; details: PC12 cells, relative to control cells

In the case of “peptide 9: GLP-1 with A/G, V/L, S/K, Y/Q, L/M substitutions at position 8, 16, 18, 19, 20 (SEQ ID NO: 6) (HGEGTFTSDLSKQMEGQAAKEFIAWLVKGR)”, the “induction of insulin secretion” value [1] is reported as “retained the ability to induce insulin secretion; also recorded: restores activity”.

In the case of `O=S(=O)(NCCNC/C=C/c1ccc(Br)cc1)c1cccc2cnccc12` [H89], the “effect on GLP-1, exendin-4 or NGF induced neurite outgrowth” value (shortened to “effect”) [2] is reported as “some inhibitory effects on GLP-1 and NGF-induced neurite outgrowth”.

“peptide 30: peptide 1 with neutral serine replaced by basic lysine in position 18 (SEQ ID NO:27) (HGEGTFTSDVSKYLEGQAAKEFIAWLVKGR)” was tested, and the “induction of insulin secretion” value [1] was “loss of activity”.

In the case of exendin (9-39), the “effect” value [2] is reported as “failed to initiate neurite extension”.

For “peptide 36: exendin-4 with arginine in position 36 and position 30 modified from glutamic acid to alanine (SEQ ID NO:33) (HGEGTFTSDLSKQMEEEAVREFIAWLKNGR; not fully specified)”, the “induction of insulin secretion” value [1] was “well tolerated”.

“peptide 15: truncation of exendin-4 including residues up to and including residue 43 (SEQ ID NO:12)” was tested, and the “induction of insulin secretion” value [1] was “inducing effect that exceeded that of exendin-4 or GLP-1”.

`COc1cccc(-c2cc(=O)c3ccccc3o2)c1N` [PD98059] was tested, and the “effect” value [2] was “reduced GLP-1 and exendin-4 induced neurite outgrowth”.

For “peptide 8: GLP-1 with A to G substitution at position 8 and V to L at position 16 (SEQ ID NO:5) (HGEGTFTSDLSSYLEGQAAKEFIAWLVKGR)”, the “induction of insulin secretion” value [1] was “retained the ability to induce insulin secretion; also recorded: substantially greater effect on insulin secretion than either GLP-1 or exendin-4”.

`CC[C@H](C)[C@H](NC(=O)[C@H](Cc1ccccc1)NC(=O)[C@H](CCC(=O)O)NC(=O)[C@H](CCCCN)NC(=O)[C@H](C)NC(=O)[C@H](C)NC(=O)[C@H](CCC(N)=O)NC(=O)CNC(=O)[C@H](CCC(=O)O)NC(=O)[C@H](CC(C)C)NC(=O)[C@H](Cc1ccc(O)cc1)NC(=O)[C@H](CO)NC(=O)[C@H](CO)NC(=O)[C@@H](NC(=O)[C@H](CC(=O)O)NC(=O)[C@H](CO)NC(=O)[C@@H](NC(=O)[C@H](Cc1ccccc1)NC(=O)[C@@H](NC(=O)CNC(=O)[C@H](CCC(=O)O)NC(=O)CNC(=O)[C@@H](N)Cc1c[nH]cn1)[C@@H](C)O)[C@@H](C)O)C(C)C)C(=O)N[C@@H](C)C(=O)N[C@@H](Cc1c[nH]c2ccccc12)C(=O)N[C@@H](CC(C)C)C(=O)N[C@H](C(=O)N[C@@H](CCCCN)C(=O)NCC(=O)N[C@@H](CCCNC(=N)N)C(N)=O)C(C)C` [GLP-1 Gly^8] was tested, and the “hypoglycemia in Zucker rats” value ([3]; fasted Zucker fatty rats) was “drop in blood glucose into the hypoglycemic range”, the blood glucose ([3]; fasted rats, monitored 8 h) was “rapidly lowered blood glucose” and the “potency on plasma insulin versus equimolar standard” value [4] was “more potent than equimolar GLP-1”. The “induction of insulin secretion” value [1] was “induced insulin secretion slightly more than exendin-4”.

For nerve growth factor [NGF], the “intracellular levels of βAPP (cell lysates)” value [5] was “dramatic increases in intracellular levels of βAPP”, the “reduction of Aβ1-40 levels compared to vehicle” value [6] was 40% and the “increase in neurite projections from controls” value ([7]; NGF 10 ng/ml) was 550%. For the same compound, the “increase in neurite projections from controls” value ([7]; NGF 30 ng/ml) was 720%, the “increased incorporation of BrdU relative to untreated” value [8] was 9% and the “maximal decrease in synaptophysin expression relative to control cells” value [9] was “approximately 70%”. For the same compound, the synaptophysin expression ([9]; relative to untreated) was “dramatically reduced the expression of the synaptophysin protein” and the “Aβ1-40 levels in conditioned media” value [10] was “significant increases in Aβ1-40 levels”.
